Measured values reported in PMC3773979 (Biochemistry, 2010).
Substitutions are numbered along the chain they refer to. Like-named read-outs stand apart in the source and are kept apart here. Marks after values point to notes of the source that are not given here.

How the values were obtained:
Sp9 mutant DHFR [1] = target: Sp9 mutant DHFR (Streptococcus pneumoniae serotype 4, UniProt Q54801, A149T/E133A/H26Y/I100V/Q81H/Q91S); details: pH 7.0, MTEN buffer, 25 °C
S. pneumoniae DHFR [2] = target: T1, S. pneumoniae DHFR (Streptococcus pneumoniae serotype 4, UniProt Q54801, A78V/I100L/K60Q/V77A); details: pH 7.0, MTEN buffer, 25 °C
T1 sequence (Q54801 1-168 K60Q/V77A/A78V/I100L): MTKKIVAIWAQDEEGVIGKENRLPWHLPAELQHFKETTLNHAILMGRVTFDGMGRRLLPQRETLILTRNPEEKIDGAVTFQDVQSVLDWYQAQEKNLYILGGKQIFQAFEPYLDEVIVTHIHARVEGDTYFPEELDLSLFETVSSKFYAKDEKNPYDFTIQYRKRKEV

E. coli DHFR [3] = details: cited from earlier work
S. pneumoniae DHFR [4] = target: T1, S. pneumoniae DHFR; assay: Equilibrium fluorescence quenching titration, spDHFR; type: binding; details: read-out: Kd (NADPH), pH 7.0, MTEN buffer
Sp9 mutant DHFR [5] = target: T2, Sp9 mutant DHFR (Streptococcus pneumoniae serotype 4, UniProt Q54801, A149T/E133A/H26Y/I100V/Q81H/Q91S); assay: Equilibrium fluorescence quenching titration, Sp9; type: binding; details: read-out: Kd (NADPH), pH 7.0, MTEN buffer
T2 sequence (Q54801 1-168 H26Y/Q81H/Q91S/I100V/E133A/A149T): T1 sequence (Q54801 1-168 K60Q/V77A/A78V/I100L) with H26Y, Q60K, A77V, V78A, Q81H, Q91S, L100V, E133A, A149T

E. coli DHFR (wt) = details: read-out: Kd (NADPH); pH 7.0; cited from earlier work
S. pneumoniae DHFR [6] = target: T1, S. pneumoniae DHFR; assay: Stopped-flow binding kinetics; details: MTEN buffer, 25 °C, relaxation method
E. coli DHFR [7] = details: cited from earlier work; remark: listed apart in the source
Bacterial DHFRs = details: cited from earlier work

For `Nc1nc(=O)c2c([nH]1)NCC(CNc1ccc(C(=O)N[C@@H](CCC(=O)O)C(=O)O)cc1)=N2` [H2F, 7,8-dihydrofolate], the Km (Sp9 mutant DHFR [1]; read-out: KM (H2F)) is given as under 0.63 µM, the Km (S. pneumoniae DHFR [2]; read-out: KM (H2F)) is given as 4.4 ± 0.95 µM and the Km (E. coli DHFR [3]; read-out: KM (H2F)) is given as 0.7 µM.

In the case of `NC(=O)C1=CN([C@@H]2O[C@H](COP(=O)(O)OP(=O)(O)OC[C@H]3O[C@@H](n4cnc5c(N)ncnc54)[C@H](OP(=O)(O)O)[C@@H]3O)[C@@H](O)[C@H]2O)C=CC1` [NADPH, nicotinamide adenine dinucleotide phosphate (reduced form)], the Kd (S. pneumoniae DHFR [4]) is reported as 210 ± 13 nM, the Km (Sp9 mutant DHFR [1]; read-out: KM (NADPH)) is reported as 0.75 ± 0.3 µM and the Kd (Sp9 mutant DHFR [5]) is reported as 160 ± 58 nM. For the same compound, the Kd (E. coli DHFR (wt)) was 330 nM, the “koff (NADPH)” value (S. pneumoniae DHFR [6]) was 18.0 ± 3.2 s⁻¹ and the “kon (NADPH)” value (S. pneumoniae DHFR [6]) was 11.9 ± 1.4 μM ^−1s^−1. The Km (S. pneumoniae DHFR [2]; read-out: KM (NADPH)) was 15.7 ± 4.6 µM, the Km (E. coli DHFR [3]; read-out: KM (NADPH)) was 4.8 µM and the “koff (NADPH)” value (E. coli DHFR [7]) was 3.5 ^* s^−1. For the same compound, the “kon (NADPH)” value (E. coli DHFR [7]) was 20.0 ^* μM ^−1s^−1.

For `COc1cc(Cc2cnc(N)nc2N)cc(OC)c1OC` [Trimethoprim], the TMP binding (Bacterial DHFRs; bacterial DHFRs) is given as 0.08 nM and the “tighter binding to bacterial DHFRs than human DHFR” value (Bacterial DHFRs; bacterial versus human DHFR) is given as 2500 fold.
